Laboratory results published in patent US20230020507A1, “COMPOUND AND USE THEREOF IN TREATING AUTOIMMUNE DISEASES” (PARENCHYMA BIOTECH INC., priority 2019, published 2023).

What was measured:
[1] = test system: Foxp3+ regulatory T cells; experiment: In vitro regulatory T cell (Foxp3+ Treg) production from human peripheral blood CD4 T cells; assay type: cell-based; conditions: anti-CD3/anti-CD28, TGFβ-1, IL-2, 2.5 μM, 7 days
Method: Human peripheral blood (AllCells) and phosphate buffered saline (PBS) were mixed in a ratio of 1:1 to prepare a mixture, followed by allowing the mixture to slowly rise so as not to be mixed into the upper layer of Histopaque (Sigma). After centrifugation at 350 g for 20 minutes, only the monocyte layer in the middle layer was collected and washed with HBSS (Hanks' Balanced Salt Solution, Gibco®). After washing with MACS buffer (Miltenyi Biotec) once more to obtain T-cells, positive selection (autoMACS seperator, Miltenyi Biotec) was performed with CD4 Microbeads (Miltenyi Biotec). The T-cells collected by the above method were prepared by resuspending the cells in RPMI-fetal bovine serum (FBS) 10%+2-ME (mercaptoethanol) medium at 5×10^5/ml. For T-cell activation, 10 μg/ml anti-CD3 (eBioscience™) was dispensed by 150 μl into a 48-well plate, reacted in a cell incubator (37° C., 5% CO2 incubator) for 3 hours, and washed with phosphate buffered saline to prepare the plate. 250 μl of resuspended T-cells was dispensed onto the prepared plate, and each well was treated with 2 μg/ml of anti-CD28 (eBioscience™), 5 ng/ml of TGFβ-1 (R&D systems), and 50 U/ml of IL-2 (Miltenyi Biotec). Each 5 μl of compounds at a concentration of 2.5 μM diluted in RPMI+2ME medium was used for treatment, followed by culturing the same in a cell incubator (37° C., 5% CO2 incubator) for 7 days. As a control, 5 μl of 0.05% dimethylsulfoxide (DMSO)/RPMI medium was used for treatment. After 7 days, in order to confirm effects of producing regulatory T cells, the cultured cells were recovered to determine the presence of Foxp3 protein.
The recovered cells were placed in a 5 ml FACS tube (BD Falcon) and washed with 1 ml of phosphate buffered saline. The cells were resuspended in 0.1 ml of FACS buffer (0.1% NaN3, 1% FBS) and treated with 1 μg of human immunoglobulin G (Human IgG, Sigma) to prevent non-specific binding of the antibody. After reacting at 4° C. for 15 minutes, the cells were washed with FACS buffer. Then, 1 ml of Fixation/Permeabilization solution (eBioscience™) was added to the FACS tube containing each sample, followed by reaction at 4° C. for 1 hour. Thereafter, the product was washed twice with a Permeabilization buffer (eBioscience™). Then, 0.25 μg of Foxp3 monoclonal antibody (eBioscience™) was used for treatment, followed by staining the sample for 4 to 30 minutes. The cells were washed twice with the permeabilization buffer, suspended in 0.3 ml of FACS buffer, and measured by flow cytometry.

[2] = test system: C57BL/6 mice with autoimmune encephalomyelitis (EAE); experiment: Experimental autoimmune encephalomyelitis (EAE) model of multiple sclerosis, severity index; assay type: in vivo, mouse; conditions: 20 mg/kg intraperitoneally daily 12th to 17th day
Method: On day 0, myelin oligodendrocyte glycoproteins 35-55 (MOG 35-55, Peptron) (200 μg), heat-killed Mycobacterium tuberculosis (Difco, Cat No. 231141) (500 μg), and adjuvant (Complete Freund's adjuvant, Sigma Aldrich, Cat No. F5506) were mixed together and then submerged for 7 minutes. After subcutaneous injection of 100 μl of the submerged peptide into both flanks of each of C57BL/6 mice (7 weeks old, female, 17±2 g), 100 μl of pertussis toxin (Sigma Aldrich. Cat No. P2980) (200 ng) was administered intravenously to the tail.
On the 2nd day of the experiment, the same amount of pertussis toxin was administered intravenously. The mice were checked for immersion leaking from the injected site, and visually observed from the 7th day of the experiment in order to confirm the onset of multiple sclerosis.
The multiple sclerosis index was visually observed and recorded at an interval of 2 days from the 7th day of the experiment in the severity index system classified into 0-5 stages, and autoimmune encephalomyelitis symptoms were indexed according to the following items (see Table 4).

[3] = test system: IFN-γ, IL-17A, IL-1β, IL-10 and Foxp3 expression in spinal cord lesions; experiment: mRNA expression of inflammatory and immunomodulatory factors in spinal cord of EAE mice (real-time PCR); assay type: in vivo, mouse; conditions: 20 mg/kg i.p., 42nd day, compared to solvent control
Description: On the 42nd day of the experiment, the spinal cord of the mouse was excised to prepare an mRNA sample. In order to extract mRNA, the spinal cord tissue was ground with a homogenizer to obtain a homogeneous suspension. […] Then, cDNA was synthesized from the isolated RNA by reverse transcription, and the expression of inflammatory cytokines was investigated through real-time polymerase chain reaction (PCR) using iQ SYBR-Green Supermix (Bio-rad) in the CFX96 (Bio-rad) detection system. Relative values of the enzyme expression levels were compared by the ΔΔct method using GAPDH as a control enzyme. Herein, one (1) fold was set using the WT mouse spinal cord as a control.
The real-time polymerase chain reaction was implemented under the conditions of cycles at an annealing temperature of 58° C., and the following primer sequences were used.

[4] = test system: C57BL/6 mice with DSS-induced inflammatory bowel disease; experiment: DSS-induced inflammatory bowel disease model, severity index and colon weight:length ratio; assay type: in vivo, mouse; conditions: 20 mg/kg oral daily, compared to solvent control; for inflammatory bowel disease severity index: 2nd to 11th day, 10th day of the experiment; for colon weight:length ratio (intestinal inflammation): 15th day of the experiment
Method: The 1.5% DSS solution was changed at an interval of 2 days. Sterile distilled water was provided for drinking from the 8th day of the experiment. Body weight and severity index were measured at an interval of 2 days from the 0th day of the experiment in order to confirm the onset of inflammatory bowel disease.
20 mg/kg of the compound per mouse was completely dissolved in DMSO corresponding to 10% (v/v) of the administered dose, and then diluted in a cremophor EL-phosphate buffered saline mixture in order to produce the final DMSO:Cremophor EL:phosphate buffered saline (1:1:8, v/v/v), followed by oral administration of 200 μl daily for a total of 10 times from the 2nd to 11th days of the experiment. An inflammatory bowel disease severity index was visually observed and recorded at an interval of 2 days according to a severity index system classified into 0 to 10 levels.
Inflammatory bowel disease symptoms were evaluated by summing the scores of three items according to the following items (Table 3).

[5] = test system: IL-1β, IL-6, IL-17A, TNF-α, IL-10 and Foxp3 expression in colon lesions; experiment: mRNA expression of inflammatory and immunomodulatory factors in colon of DSS mice (real-time PCR); assay type: in vivo, mouse; conditions: 20 mg/kg oral, 15th day, compared to solvent control
Description: On the 15th day of the experiment, the colon of the mouse was excised to prepare an mRNA sample. In order to extract mRNA, the colon tissue was ground with a homogenizer to acquire a homogeneous suspension. […] From the isolated RNA, cDNA was synthesized by reverse transcription followed by confirming the expression of inflammatory cytokines through real-time polymerase chain reaction (PCR) using iQ SYBR-Green Supermix (Bio-rad) in the CFX96 (Bio-rad) detection system. Relative values of the enzyme expression levels were compared by the ΔΔct method using GAPDH as a control enzyme. Herein, one (1) fold was set using the normal mouse colon as a control.
The real-time polymerase chain reaction was implemented under the conditions of cycles at an annealing temperature of 58′° C. and the following primer sequences were used.

[6] = scale 0-5, solvent control 3.33±0.17

Cc1nc(NC(=O)Cc2c[nH]c3ccc(F)cc23)ccc1Br [Compound 2, N-(5-bromo-6-methylpyridin-2-yl)-2-(5-fluoro-1H-indol-3-yl)acetamide] was tested. Which “generation of Foxp3+ regulatory T cells” value [1] did it give?
The value was “promoted”.

How did the “generation of Foxp3+ regulatory T cells” value [1] turn out when Cc1nc(NC(=O)Cc2c[nH]c3ccccc23)ccc1Br [Compound 5, N-(5-bromo-6-methylpyridin-2-yl)-2-(1H-indol-3-yl)acetamide] was run?
The value was “promoted”.

With Cc1nc(NC(=O)Cc2c[nH]c3ccc(Cl)cc23)ccc1Br [Compound 8, N-(5-bromo-6-methylpyridin-2-yl)-2-(5-chloro-1H-indol-3-yl)acetamide] as the compound, how does the “treatment effects on EAE severity index compared to solvent control from the 16th day, maintained after administration was stopped” value [2] read?
Its value is “statistically significant treatment effects”.

What about the “severity index (EAE), 18th day, acute reaction period” value [2, 6] of the same compound?
The value was 1.17±0.56.

What about the “severity index (EAE), 36th day, chronic reaction period” value [2, 6] of the same compound?
The value was 1.17±0.56.

What about the “expression level of Foxp3 in spinal cord lesions” value [3] of the same compound?
The value was “significantly increased”.

What about the “expression level of IFN-γ in the spinal cord lesion” value [3] of the same compound?
The value was “significantly reduced”.

What about the “expression level of IL-1β in the spinal cord lesion” value [3] of the same compound?
The value was “significantly reduced”.

What about the “expression level of IL-10 in spinal cord lesions” value [3] of the same compound?
Its value is “significantly increased”.

And the “expression level of IL-17A in the spinal cord lesion” value [3]?
The value was “significantly reduced”.

And the “generation of Foxp3+ regulatory T cells” value [1]?
The value was “promoted”.

And the “inflammatory bowel disease severity index” value [4]?
Its value is “statistically significant therapeutic effects”.

What about the “colon weight:length ratio (intestinal inflammation)” value (“colon weight:length ratio” for short) [4] of the same compound?
Its value is “significantly suppressed”.

What about the “expression level of Foxp3 in the colon lesion” value [5] of the same compound?
Its value is “significantly increased”.

And the “expression level of IL-1β in colon lesions” value [5]?
Its value is “significantly reduced”.

And the “expression level of IL-6 in colon lesions” value [5]?
Its value is “significantly reduced”.

And the “expression level of IL-10 in the colon lesion” value [5]?
Its value is “significantly increased”.

And the “expression level of IL-17A in colon lesions” value [5]?
The value was “significantly reduced”.

What about the “expression level of TNF-α in colon lesions” value [5] of the same compound?
Its value is “significantly reduced”.

O=C(Cc1c[nH]c2ccccc12)Nc1ccc(Cl)c(F)n1 [Compound 23, N-(5-chloro-6-fluoropyridin-2-yl)-2-(1H-indol-3-yl)acetamide] was tested. Which “generation of Foxp3+ regulatory T cells” value [1] did it give?
Its value is “promoted”.

How did the “generation of Foxp3+ regulatory T cells” value [1] turn out when CN(C(=O)Cc1c[nH]c2ccccc12)c1nc2ccccc2s1 [Compound 44, N-(benzo[di]thiazol-2-yl)-2-(1H-indol-3-yl)-N-methyl acetamide] was run?
Its value is “promoted”.

What about the “inflammatory bowel disease severity index” value [4] of the same compound?
The value was “statistically significant therapeutic effects”.

And the “colon weight:length ratio” value [4]?
Its value is “significantly suppressed”.

For CN(C(=O)Cc1c[nH]c2ccc(Cl)cc12)c1nc2ccccc2s1 [Compound 47], which “generation of Foxp3+ regulatory T cells” value [1] is on record?
Its value is “promoted”.

For CN(C(=O)Cc1c[nH]c2ccc(F)cc12)c1nc2ccccc2s1 [Compound 60, N-(benzo[di]thiazol-2-yl)-2-(5-fluoro-1H-indol-3-yl)-N-methyl acetamide], which “inflammatory bowel disease severity index” value [4] is on record?
Its value is “statistically significant therapeutic effects”.

What about the “colon weight:length ratio” value [4] of the same compound?
The value was “significantly suppressed”.

How did the “generation of Foxp3+ regulatory T cells” value [1] turn out when COc1cc(NC(=O)Cc2c[nH]c3ccccc23)cc(OC)c1OC [Compound 71, 2-(1H-indol-3-yl)-N-(3,4,5-trimethoxyphenyl)acetamide] was run?
The value was “promoted”.

How did the “generation of Foxp3+ regulatory T cells” value [1] turn out when O=C(Cc1c[nH]c2ccccc12)Nc1cc(Cl)cc(Cl)c1 [Compound 81, N-(3,5-dichlorophenyl)-2-(1H-indol-3-yl)acetamide] was run?
The value was “promoted”.
